Experimental data from ChEMBL document CHEMBL4665917, “Optimization of Versatile Oxindoles as Selective PI3Kδ Inhibitors” (ACS Med Chem Lett, 2020).
Values after ≈ are worked out from the molar mass of the structure shown.

Key:
[1] = Half life in Wistar-Han rat at 0.5 mg/kg, iv or 1 mg/kg, po; assay type: ADME, organism-based; conditions: in vivo
[2] = Half life in Beagle dog at 0.5 mg/kg, iv or 1 mg/kg, po; assay type: ADME, organism-based, Canis lupus familiaris; conditions: in vivo
[3] = Apparent permeability in pig LLC-PK1 cells; assay type: ADME, cell-based, Sus scrofa
[4] = Solubility of the compound at pH 7; assay type: physicochemical; conditions: buffer
[5] = Volume of distribution in Wistar-Han rat at 0.5 mg/kg, iv or 1 mg/kg, po; assay type: ADME, organism-based; conditions: in vivo
[6] = Unbound volume of distribution in Wistar-Han rat at 0.5 mg/kg, iv or 1 mg/kg, po; assay type: ADME, organism-based; conditions: in vivo
[7] = Oral bioavailability in Wistar-Han rat at 1 mg/kg; assay type: ADME, organism-based; conditions: in vivo
[8] = Volume of distribution in Beagle dog at 0.5 mg/kg, iv or 1 mg/kg, po; assay type: ADME, organism-based, Canis lupus familiaris; conditions: in vivo
[9] = Unbound volume of distribution in Beagle dog at 0.5 mg/kg, iv or 1 mg/kg, po; assay type: ADME, organism-based, Canis lupus familiaris; conditions: in vivo
[10] = Oral bioavailability in Beagle dog at 1 mg/kg; assay type: ADME, organism-based, Canis lupus familiaris; conditions: in vivo
[11] = cells; conditions: Homo sapiens, HeLa
[12] = Clearance in Wistar-Han rat at 0.5 mg/kg, iv or 1 mg/kg, po; assay type: ADME, organism-based; conditions: in vivo
[13] = Intrinsic clearance in Wistar-Han rat at 0.5 mg/kg, iv or 1 mg/kg, po; assay type: ADME, organism-based; conditions: in vivo
[14] = Clearance in Beagle dog at 0.5 mg/kg, iv or 1 mg/kg, po; assay type: ADME, organism-based, Canis lupus familiaris; conditions: in vivo
[15] = Intrinsic clearance in Beagle dog at 0.5 mg/kg, iv or 1 mg/kg, po; assay type: ADME, organism-based, Canis lupus familiaris; conditions: in vivo
[16] = species: Homo sapiens; test: Selectivity index, ratio of IC50 for Inhibition of N-terminal His6 tagged recombinant full-length human PI3Kalpha/human recombinant full length p85alpha expressed in baculovirus infected Sf21 cells to IC50 for Inhibition of N-terminal His6 tagged recombinant full-length human PI3Kdelta/human recombinant full length p85alpha expressed in baculovirus infected Sf21 cells
[17] = AUC in rat at 100 mg/kg; assay type: ADME, organism-based; parameters: dose 100 mg/kg; conditions: in vivo

Row | Compound | half-life [1] [h] | half-life [2] [h] | Papp [3] [×10⁻⁶ cm/s] | solubility [4] [µM] | Vd [5] [L/kg] | Vdu [6] [L/kg] | bioavailability [7] [%] | Vd [8] [L/kg] | Vdu [9] [L/kg] | bioavailability [10] [%] | IC50 [11] [µM] | clearance [12] [mL/min/kg] | CL [13] [mL/min/kg] | clearance [14] [mL/min/kg] | CL [15] [mL/min/kg] | Ratio IC50 [16] | AUC [17] [µM·h]
1 | CCn1c(-c2cnc(C)nc2)nc2c(-c3cnc4c(c3)[C@](C)(N[C@H]3CCOC3)C(=O)N4)ncnc21 | 3 | 3.4 | 5.7 | 150 (≈ 70.7 µg/mL) | 3.8 | 4.9 | 33 | 1.2 | 1.6 | 91 | > 10 | – | – | – | – | – | –
2 | Cc1ncc(-c2nc3c(-c4ccc5c(c4)[C@@]4(CCCN4C(=O)C4CC4)C(=O)N5)ncnc3n2C)cn1 | 0.6 | 1.3 | 9 | 130 (≈ 62.5 µg/mL) | 1.9 | 4.6 | – | 1.4 | 2.7 | – | 10 | 49 | 290 | 9.6 | 27 | – | –
3 | CCn1c(-c2cnc(C)nc2)nc2c(-c3ccc4c(c3)[C@](C)(NCC(C)(F)F)C(=O)N4)ncnc21 | 1.9 | 1.1 | – | 120 (≈ 57.4 µg/mL) | 3.3 | 6.9 | – | 1.7 | 3.9 | – | – | – | – | – | – | – | –
4 | CCn1c(-c2cnc(C)nc2)nc2c(-c3ccc4c(c3)[C@](C)(N[C@H]3CCOC3)C(=O)N4)ncnc21 | 1.4 | 1.6 | 14 | 180 (≈ 84.7 µg/mL) | 3.7 | 6.5 | 14 | 4.2 | 6.5 | – | – | 44 | 160 | 32 | – | – | –
5 | CCn1c(-c2cnc(C)nc2)nc2c(-c3ccc4c(c3)[C@](C)(NC3CCC3)C(=O)N4)ncnc21 | 0.6 | – | 30 | 130 (≈ 59.1 µg/mL) | 2.4 | 7.3 | – | – | – | – | – | 66 | 930 | – | – | – | –
6 | CCn1c(-c2cnc(C)nc2)nc2c(-c3ccc4c(c3)[C@](C)(NCC(C)(C)F)C(=O)N4)ncnc21 | 1.6 | 1.4 | 27 | 130 (≈ 61.7 µg/mL) | 3 | 6.3 | 58 | 2.9 | 8.7 | 25 | – | 28 | 89 | 39 | – | – | –
7 | CCn1c(-c2cnc(C)nc2)nc2c(-c3cnc4c(c3)[C@](C)(N3CC(C)(OC)C3)C(=O)N4)ncnc21 | 2.8 | 2 | 24 | 160 (≈ 77.7 µg/mL) | 1.7 | 3.3 | – | 1.3 | 2.1 | – | – | 8.1 | 18 | 7.4 | 16 | – | –
8 | CCn1ncc(-c2nc3c(-c4ccc5c(c4)[C@](C)(CC4CC4)C(=O)N5)ncnc3n2C)c1C | – | – | – | – | – | – | – | – | – | – | 0.017 | – | – | – | – | – | –
9 | Cn1cnc2c(-c3ccc4c(c3)[C@](C)(CC3CC3)C(=O)N4)ncnc21 | – | – | – | – | – | – | – | – | – | – | 3.1 | – | – | – | – | – | –
10 | CCn1c(-c2cnc(C)nc2)nc2c(-c3ccc4c(c3)[C@@]3(CCCN3C(=O)C3CC3)C(=O)N4)ncnc21 | 0.5 | 0.5 | 10 | 34 (≈ 16.8 µg/mL) | 1.9 | 5.5 | 10 | 1.5 | 3.8 | 78 | – | – | – | – | – | – | –
11 | CCn1c(-c2cnc(C)nc2)nc2c(-c3ccc4c(c3)[C@@]3(CCCN3C(C)C)C(=O)N4)ncnc21 | 0.6 | 1 | – | 56 (≈ 26.2 µg/mL) | 3.1 | 14 | – | 2.2 | 11 | – | – | – | – | – | – | – | –
12 | CCn1ncc(-c2nc3c(N4CCC(n5c(=O)[nH]c6ncccc65)CC4)ncnc3n2C)c1C | – | – | – | – | – | – | – | – | – | – | – | – | – | – | – | 71 | –
13 | CCn1c(-c2cnc(C)nc2)nc2c(-c3ccc4c(c3)[C@](C)(N3CC(C)(OC)C3)C(=O)N4)ncnc21 | 0.6 | 1.8 | 27 | 120 (≈ 58.1 µg/mL) | 1.9 | 6.3 | 28 | 2.8 | 6.5 | – | – | – | – | – | – | – | –
14 | Cc1ncc(-c2nc3c(-c4cnc5c(c4)[C@](C)(N[C@H]4CCOC4)C(=O)N5)ncnc3n2C)cn1 | 1.1 | 2 | – | 140 (≈ 64 µg/mL) | 2.4 | 3.1 | – | 0.2 | 0.3 | – | 8.2 | 58 | 240 | 1.9 | 3 | – | –
15 | CCn1c(-c2cnc(C)nc2)nc2c(-c3ccc4c(c3)[C@](C)(CC3CCO3)C(=O)N4)ncnc21 (some centres not stated) | 1 | 1 | – | – | 2.4 | 6 | – | 1.7 | 3.5 | – | – | 27 | 99 | 24 | 250 | – | –
16 | CCn1c(-c2cnc(C)nc2)nc2c(-c3ccc4c(c3)[C@@]3(CCCN3C(=O)C3CC3)C(=O)N4C)ncnc21 | 1.1 | 3 | 32 | 130 (≈ 66.1 µg/mL) | 0.7 | 3.8 | 57 | 0.5 | 1 | 99 | 8.5 | – | – | – | – | – | –
17 | CCn1c(-c2cnc(C)nc2)nc2c(-c3cnc4c(c3)[C@](C)(NC3CCC3)C(=O)N4)ncnc21 | 3 | – | 25 | 140 (≈ 63.8 µg/mL) | 2.1 | 3.1 | – | – | – | – | – | – | – | – | – | – | –
18 | CCn1c(-c2cnc(C)nc2)nc2c(-c3cnc4c(c3)[C@](C)(NCC(C)(C)F)C(=O)N4)ncnc21 | 2.5 | 9.3 | 24 | 115 (≈ 54.7 µg/mL) | 2.4 | 5 | 61 | 1.4 | 3.3 | 100 | – | 12 | 29 | 2.5 | 6 | – | 390
